From US9661854B2, “Molecules having pesticidal utility, and intermediates, compositions, and processes, related thereto” (Dow AgroSciences LLC, priority 2015, dated 2017) come the findings set out here.

Molecules are shown by their SMILES.

Holding throughout (assay type): in vivo
Data set [1] deals with Cabbage Looper (Trichoplusia ni, TRIPNI). Kind of data set: Bioassay on Cabbage Looper (CL), 128-well diet tray assay. The following applies: 168 h, 50 μg/cm^2 on artificial diet, second instar larvae, 25° C., five to seven days, average of eight wells, read-out: CL % Control (or Mortality) rating. The method in brief:
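Second-instar larvae (one to five per well) placed on artificial diet treated with 50 μg/cm^2 test molecule in 90:10 acetone-water, dried; eight wells per molecule. Held at 25° C., 14:10 light-dark, for five to seven days. Percent mortality scored per well and averaged over the eight wells.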

For data set [2], the system named is Beet Armyworm (Spodoptera exigua, LAPHEG). Kind of data set: Bioassay on Beet Armyworm (BAW), 128-well diet tray assay. The following applies: 168 h, 50 μg/cm^2 on artificial diet, second instar larvae, 25° C., five to seven days, average of eight wells, read-out: BAW % Control (or Mortality) rating. Put shortly:
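Second-instar larvae, one to five per well, fed artificial diet surface-treated with 50 μg/cm^2 test molecule in 90:10 acetone-water, dried before infestation; eight wells per molecule. Held at 25 °C, 14:10 light-dark for five to seven days; percent mortality averaged over wells.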

Data set [3] has as its system Yellow Fever Mosquito (Aedes aegypti, AEDSAE). The following applies: about 1 day-old larvae, master plate 4000 ppm solution diluted, room temperature, scored after 3 days. How it is done: Example B: Bioassays on Yellow Fever Mosquito (Aedes aegypti, AEDSAE (“YFM”)
Certain molecules disclosed in this document were tested against YFM using procedures described in the following paragraph. In the reporting of the results, the “YFM Rating Table” was used (See Table Section).
Master plates containing 400 μg of a molecule dissolved in 100 μL of dimethyl sulfoxide (DMSO) (equivalent to a 4000 ppm solution) are used. A master plate of assembled molecules contains 15 μL per well. To this plate, 135 μL of a 90:10 water/acetone mixture is added to each well. A robot (Biomek® NXP Laboratory Automation Workstation) is programmed to dispense 15 μL aspirations from the master plate into an empty 96-well shallow plate (“daughter” plate). There are 6 reps (“daughter” plates) created per master. The created “daughter” plates are then immediately infested with YFM larvae.
The day before plates are to be treated, mosquito eggs are placed in Millipore water containing liver powder to begin hatching (4 g into 400 mL). After the “daughter” plates are created using the robot, they are infested with 220 μL of the liver powder/larval mosquito mixture (about 1 day-old larvae). After plates are infested with mosquito larvae, a non-evaporative lid is used to cover the plate to reduce drying. Plates are held at room temperature for 3 days prior to grading. After 3 days, each well is observed and scored based on mortality. The results are indicated in the table entitled “Table ABC: Biological Results” (See Table Section).

In general, mortality refers to the share of the test organisms that died. Consider `Cc1ccc(C(C)C)c(N2C(=O)CS/C2=N\C(=O)Nc2ccc(CCc3ncn(-c4ccc(OC(F)(F)F)cc4)n3)c(F)c2)c1` [F23, (Z)-1-(3-Fluoro-4-(2-(1-(4-(trifluoromethoxy)phenyl)-1H-1,2,4-triazol-3-yl)ethyl)phenyl)-3-(3-(2-isopropyl-5-methylphenyl)-4-oxothiazolidin-2-ylidene)urea], for which the mortality at 50 µg/cm2 in data set [1] and in data set [2] was 50 to 100% throughout. Further, the “YFM % Control (or Mortality) rating” value in data set [3] was “A (80-100)”.
In the case of `CCC(C)Oc1ccc(C)cc1N1C(=O)CS/C1=N\C(=O)Nc1ccc(/C=C/c2ncn(-c3ccc(OC(F)(F)F)cc3)n2)cc1F` (stereo not drawn) [F60, 1-((Z)-3-(2-(sec-Butoxy)-5-methylphenyl)-4-oxothiazolidin-2-ylidene)-3-(2-fluoro-4-((E)-2-(1-(4-(trifluoromethoxy)phenyl)-1H-1,2,4-triazol-3-yl)vinyl)phenyl)urea], the mortality at 50 µg/cm2 in data set [1] and in data set [2] was 50 to 100% throughout. Further, the “YFM % Control (or Mortality) rating” value in data set [3] is on record as “A (80-100)”.
For `Cc1ccc(C(C)C)c(N2C(=O)CS/C2=N\C(=O)Nc2ccc(CC(C)c3ncn(-c4ccc(OC(F)(F)F)cc4)n3)cc2)c1` (stereo not drawn) [F15, (Z)-1-(3-(2-Isopropyl-5-methylphenyl)-4-oxothiazolidin-2-ylidene)-3-(4-(2-(1-(4-(trifluoromethoxy)phenyl)-1H-1,2,4-triazol-3-yl)propyl)phenyl)urea], the mortality at 50 µg/cm2 in data set [1] and in data set [2] was 50 to 100% in each case. In addition, the “YFM % Control (or Mortality) rating” value in data set [3] is listed as “A (80-100)”.
With `CC(C)c1ccccc1N1C(=O)CS/C1=N\C(=O)Nc1ccc(CCc2ncn(-c3ccc(C(F)(F)F)cc3C#N)n2)cc1` [F76, (Z)-1-(4-(2-(1-(2-cyano-4-(trifluoromethyl)phenyl)-1H-1,2,4-triazol-3-yl)ethyl)phenyl)-3-(3-(2-isopropylphenyl)-4-oxothiazolidin-2-ylidene)urea], the mortality at 50 µg/cm2 in data set [1] and in data set [2] was 50 to 100% in each case. The “YFM % Control (or Mortality) rating” value in data set [3] is listed as “A (80-100)”.
On to `Cc1ccc(OC(C)(C)C)c(N2C(=O)CS/C2=N\C(=O)Nc2ccc(CCc3ncn(-c4ccc(OC(F)(F)F)cc4)n3)cc2)c1` [F14, (Z)-1-(3-(2-(tert-Butoxy)-5-methylphenyl)-4-oxothiazolidin-2-ylidene)-3-(4-(2-(1-(4-(trifluoromethoxy)phenyl)-1H-1,2,4-triazol-3-yl)ethyl)phenyl)urea], for which the mortality at 50 µg/cm2 in data set [1] and in data set [2] was 50 to 100% in each case. Besides, the “YFM % Control (or Mortality) rating” value in data set [3] is on record as “A (80-100)”.
With `CC(C)c1ccccc1N1C(=O)CS/C1=N\C(=O)Nc1ccc(CCc2ncn(-c3ccc(Br)cc3)n2)cc1` [F77, (Z)-1-(4-(2-(1-(4-Bromophenyl)-1H-1,2,4-triazol-3-yl)ethyl)phenyl)-3-(3-(2-isopropylphenyl)-4-oxothiazolidin-2-ylidene)urea], the mortality at 50 µg/cm2 in data set [1] and in data set [2] was 50 to 100% throughout. Besides, the “YFM % Control (or Mortality) rating” value in data set [3] is given as “A (80-100)”.
Regarding `Cc1ccc(C(C)C)c(N2C(=O)CS/C2=N\C(=O)Nc2ccc(/C=C/c3ncn(-c4ccc(OC(F)(F)F)cc4)n3)cc2)c1` [F38, 1-((Z)-3-(2-isopropyl-5-methylphenyl)-4-oxothiazolidin-2-ylidene)-3-(4-((E)-2-(1-(4-(trifluoromethoxy)phenyl)-1H-1,2,4-triazol-3-yl)vinyl)phenyl)urea], the mortality at 50 µg/cm2 in data set [1] and in data set [2] was 50 to 100% each time. Moreover, the “YFM % Control (or Mortality) rating” value in data set [3] is recorded as “A (80-100)”.
For the molecule `Cc1ccc(C(C)C)c(N2C(=O)CS/C2=N\C(=O)Nc2ccc(/C=C/c3ncn(-c4ccc(OC(F)(F)F)cc4)n3)cc2F)c1` [F55, 1-(2-Fluoro-4-((E)-2-(1-(4-(trifluoromethoxy)phenyl)-1H-1,2,4-triazol-3-yl)vinyl)phenyl)-3-((Z)-3-(2-isopropyl-5-methylphenyl)-4-oxothiazolidin-2-ylidene)urea], the mortality at 50 µg/cm2 in data set [1] and in data set [2] was 50 to 100% throughout.
Turning to `Cc1ccc(C(C)C)c(N2C(=O)CS/C2=N\C(=O)Nc2c(F)cc(CCc3ncn(-c4ccc(OC(F)(F)F)cc4)n3)cc2F)c1` [F19, (Z)-1-(2,6-Difluoro-4-(2-(1-(4-(trifluoromethoxy)phenyl)-1H-1,2,4-triazol-3-yl)ethyl)phenyl)-3-(3-(2-isopropyl-5-methylphenyl)-4-oxothiazolidin-2-ylidene)urea], the mortality at 50 µg/cm2 in data set [1] and in data set [2] was 50 to 100% in each case.
Turning to `CCC(C)Oc1ccc(C)cc1N1C(=O)CS/C1=N\C(=O)Nc1ccc(CCc2ncn(-c3ccc(OC(F)(F)F)cc3)n2)cc1F` (stereo not drawn) [F24, (Z)-1-(3-(2-(sec-Butoxy)-5-methylphenyl)-4-oxothiazolidin-2-ylidene)-3-(2-fluoro-4-(2-(1-(4-(trifluoromethoxy)phenyl)-1H-1,2,4-triazol-3-yl)ethyl)phenyl)urea], the mortality at 50 µg/cm2 in data set [1] and in data set [2] was 50 to 100% throughout.
Consider `Cc1cc(N2C(=O)CS/C2=N\C(=O)Nc2ccc(CCc3ncn(-c4ccc(OC(F)(F)F)cc4)n3)cc2)c(C(C)C)cc1F` [F9, (Z)-1-(3-(4-Fluoro-2-isopropyl-5-methylphenyl)-4-oxothiazolidin-2-ylidene)-3-(4-(2-(1-(4-(trifluoromethoxy)phenyl)-1H-1,2,4-triazol-3-yl)ethyl)phenyl)urea], for which the mortality at 50 µg/cm2 in data set [1] and in data set [2] was 50 to 100% in each case.
Regarding `Cc1ccc(C(C)C)c(N2C(=O)CS/C2=N\C(=O)Nc2ccc(/C=C/c3ncn(-c4ccc(OC(F)(F)F)cc4)n3)cc2Cl)c1` [F56, 1-(2-chloro-4-((E)-2-(1-(4-(trifluoromethoxy)phenyl)-1H-1,2,4-triazol-3-yl)vinyl)phenyl)-3-((Z)-3-(2-isopropyl-5-methylphenyl)-4-oxothiazolidin-2-ylidene)urea], the mortality at 50 µg/cm2 in data set [1] and in data set [2] was 50 to 100% throughout.
Regarding `CCCc1ccc(C)cc1N1C(=O)CS/C1=N\C(=O)Nc1ccc(CCc2ncn(-c3ccc(OC(F)(F)F)cc3)n2)cc1F` [F26, (Z)-1-(2-Fluoro-4-(2-(1-(4-(trifluoromethoxy)phenyl)-1H-1,2,4-triazol-3-yl)ethyl)phenyl)-3-(3-(5-methyl-2-propylphenyl)-4-oxothiazolidin-2-ylidene)urea], the mortality at 50 µg/cm2 in data set [1] and in data set [2] was 50 to 100% throughout. In data set [3], the “YFM % Control (or Mortality) rating” value was “A (80-100)”.
As to `Cc1ccc(F)c(N2C(=O)CS/C2=N\C(=O)Nc2ccc(/C=C/c3ncn(-c4ccc(OC(F)(F)F)cc4)n3)cc2)c1` [F41, 1-((Z)-3-(2-Fluoro-5-methylphenyl)-4-oxothiazolidin-2-ylidene)-3-(4-((E)-2-(1-(4-(trifluoromethoxy)phenyl)-1H-1,2,4-triazol-3-yl)vinyl)phenyl)urea], the mortality at 50 µg/cm2 in data set [1] and in data set [2] was 50 to 100% in each case.
Turning to `COC(C)c1ccc(C)cc1N1C(=O)CS/C1=N\C(=O)Nc1ccc(CCc2ncn(-c3ccc(OC(F)(F)F)cc3)n2)cc1` (stereo not drawn) [F31, (Z)-1-(3-(2-(1-Methoxyethyl)-5-methylphenyl)-4-oxothiazolidin-2-ylidene)-3-(4-(2-(1-(4-(trifluoromethoxy)phenyl)-1H-1,2,4-triazol-3-yl)ethyl)phenyl)urea], the mortality at 50 µg/cm2 in data set [1] and in data set [2] was 50 to 100% throughout.
As to `Cc1ccc(OC(F)(F)F)c(N2C(=O)CS/C2=N\C(=O)Nc2ccc(/C=C/c3ncn(-c4ccc(OC(F)(F)F)cc4)n3)cc2)c1` [F50, 1-((Z)-3-(5-Methyl-2-(trifluoromethoxy)phenyl)-4-oxothiazolidin-2-ylidene)-3-(4-((E)-2-(1-(4-(trifluoromethoxy)phenyl)-1H-1,2,4-triazol-3-yl)vinyl)phenyl)urea], the mortality at 50 µg/cm2 in data set [1] and in data set [2] was 50 to 100% each time.
Take `COC(=O)c1cc(/C=C/c2ncn(-c3ccc(OC(F)(F)F)cc3)n2)ccc1NC(=O)/N=C1\SCC(=O)N1c1cc(C)ccc1C(C)C` [F54, Methyl 2-(3-((Z)-3-(2-isopropyl-5-methylphenyl)-4-oxothiazolidin-2-ylidene)ureido)-5-((E)-2-(1-(4-(trifluoromethoxy)phenyl)-1H-1,2,4-triazol-3-yl)vinyl)benzoate]: the mortality at 50 µg/cm2 in data set [1] and in data set [2] was 50 to 100% throughout.
